Where “and” joins values, the source holds several entries; their conditions need not be identical. Identical values can stand only once. Counter-ions that a name gives are not always drawn. Like-named read-outs stand apart in the source and are kept apart here. Some results are limits rather than exact numbers.

For data set [1], the system named is leukemia tumour line L 1210. Briefly: In vitro cytotoxic activity on leukemia tumour line L 1210. In kind it is cell-based. As to conditions: L 1210, 48 hours contact, 37° C., read-out: I D 50 (concentration which inhibits the proliferation of the cells by 50%). On the procedure:
(1) In vitro: ([…] et al., Chem. Biol. Interaction, 1979, 25, 45-58). The cytotoxic activity of the compounds of the invention has been evaluated by in vitro tests. These tests consist of adding increasing concentrations of the compound under test to a cellular culture of the leukemia tumour line L 1210 in an exponential phase of growth. The cellules are incubated at 37° C. in a CO2 incubator and counted every 24 hours. The calculation of the I D 50 (concentration of the product, expressed in 1^-1 micromole, which inhibits the proliferation of the cells by 50%) is made after 48 hours contact.

Another data set concerns leukemia P 388. In words: Test of leukemia P 388; IP/IP, D1-5. In kind it is in vivo, CDF1 hybrid mice. As to conditions: D1-D5; for Number of survivors: day D30; for T/C %: survival time. On the procedure: (2) In vivo: (GERAN et al., Cancer Chemother., 1972, 2, 07-57):
(§1) The antitumour activity was tested in vivo on various tumours inoculated in various ways according to the following general protocol:
(§2) All the male or female mice are inoculated on day D0 with a known quantity of viable tumour cells for ascitic tumours or with a known tumour fragment for solid tumours.
(§3) They are then distributed into various groups. Each group, corresponding to the animals treated by the product under test, is made up of 10 mice. The product under test is dissolved in distilled water and it is administered n times (Dx-Dy), n, y, and x varying according to the protocol chosen, at the rate of 0.1 ml of solution per 10 g by weight of mice treated and at specific doses for each protocol.
(§4) The "negative control" group, corresponding to the animals which are not treated by the product, contains 2√N animals, N being equal to or greater than the total number of mice treated by the product in the same experiment.
(§5) Finally, the tests can also be carried out at the same time as the study of a group called "positive control", of ten animals, which is treated by a molecule, known for its antitumour activity and which can vary according to the protocol chosen, in the same conditions as the groups treated by the product under test.
(§6) The antitumour activity is evaluated, in the case of ascitic tumours, by considering the increase in the survival time of the animals treated in comparison to that of the animals in the "negative control" group, according to the formula: [formula]
The criterion for activity varies according to the protocol.
(§7) Also, a product is considered as toxic at the dose studied when this T/C value is equal to or less than 85%. In addition, a product is also considered as toxic at the dose studied when the weight variation, expressed in grams and calculated by the formula: […]
"Average weight of the group measured on day 5--Average weight of the same group measured on day 1"
is equal to or less than 4 g.
(a) Test of lelukemia P 388; IP/IP, D1-5 (GERAN et al., Cancer Chemother., 1972, 2, 07-57).
(§8) The tests are carried out with CDF1 hybrid mice inoculated by intraperitoneal route with 10^6 leukemia cells from the P 388 line. The compound under test is administered for 5 successive days (D1-D5) by intraperitoneal route. The positive control for the test is 5-fluorouracile which is administered in the same conditions. The number of surviving animals is evaluated on day D30.

The next data set concerns leukemia P388. In words: Test for leukemia P388, IP/IP, D1. Type of data set: in vivo, CDF1 hybrid mice. The settings on record: 200 mg/kg IP. On the procedure: as §1, §2, §3, §4, §5, §6, §7, §8
(b) Test for Leukemia P388, IP/IP, D1 (GERAN et al. Cancer chemother., 1972, 2, 07-57).
The test is carried out according to the preceding protocol, the compound under test being administered only on day D1.

The subject of a further data set is leukemia L 1210. Briefly: Test for leukemia L 1210, IP/IP, D1-D5. In kind it is in vivo, CDF1 hybrid mice. The settings on record: 20 mg/kg IP. On the procedure: as §1, §2, §3, §4, §5, §6, §7
(c) Test for leukemia L 1210, IP/IP, D-5 (GERAN et al., Cancer cheomother.,1972, 2, 07-57).
The tests are carried out with CDF1 hybrid mice inoculated by intraperitoneal route with 10^5 leukemia cells from the L 1210 line. The compound under test is administered for 5 days (D1-D5) by intraperitoneal route. The positive control for the test is 5-fluorouracile administered in the same conditions. The number of surviving animals is evaluated on day D60.

A further data set concerns melanoma B 16. Briefly: Test for melanoma B 16. Type of data set: in vivo, BDF1 hybrid mice. The settings on record: 0.5 mg/kg IP, D1-D9. On the procedure:
as §1, §2, §3, §4, §5, §6, §7
(d) Test for melanoma B 16 (GERAN et al., Cancer Chemother., 1972, 2, 07-75).
The tests are carried out with BDF1 hybrid mice inoculated by intraperitoneal route with 0.5 ml of a homogenate of melanoma B 16 made up from 1 g of tumour in 10 ml of physiological serum. The compound under test is administered for 9 days (D1-D9) by intraperitoneal route. The positive control for the test is Cis-Platine administered in the same conditions. The number of surviving animals is evaluated on day D60.

The subject of a further data set is reticulosarcoma M5-M5076. In words: Test for reticulosarcoma M5-M5076. Type of data set: in vivo, BDF1 hybrid mice. The settings on record: 160 mg/kg IP, D1,5,9,13,17. How it is done:
as §1, §2, §3, §4, §5, §6, §7
The tests are carried out with BDF1 hybrid mice inoculated by intraperitoneal route with 10^6 cells of the M5-M5076 line. The compound under test is administered 5 times successively in sequence (D1,5,9,13,17) by intraperitoneal route. The positive control for the test is cyclophosphamide administered in the same conditions. The number of surviving animals is evaluated on day D75.

Take `COc1ccc2c(c1)c1c(NCC(C)CN(C)C)ncc(C)c1n2C` (racemic) [Derivative No. 20, 4,5-dimethyl-1-(3-dimethylamino-2-methylpropylamino)-8-methoxy-5pyrido[4,3-b]i dihydrochloride]: the IC50 in data set [1] (Mus musculus, L1210, 48 h) was 1 µM.
As for `Cc1cnc(NCC(C)CN(C)C)c2c3cc(O)ccc3n(C)c12` (racemic) [Derivative No. 21, 4,5-dimethyl-1-(3-dimethylamino-2-methylpropylamino)-8-hydroxy-5H-pyrido[4,3-b]dihydrochloride], the IC50 in data set [1] (Mus musculus, L1210, 48 h) came to 0.01 µM.
As to `O=c1[nH]cc(F)c(=O)[nH]1` [5-Fluorouracile, 5-fluorouracile, reference compound], the “Median day of survival” value with leukemia P 388 (20 mg/kg IP) was 20.1 days and 18.9 days and 19 days and 17.75 days and 16.7 days and 18.8 days and 20 days and 17 days; in the data set on leukemia P388 it was 19.0 days; with leukemia L 1210, 16.0 days. Also, the Number of survivors in the data set on leukemia P 388 (20 mg/kg IP), with leukemia P388 (day D30) and with leukemia L 1210 (day D60) was 0/10 in each case. Moreover, the T/C % in the data set on leukemia P 388 (20 mg/kg IP) was 166% and 164% and 168% and 160% and 147% and 173% and 171% and 154%; in the data set on leukemia P388 (survival time), 173%; in the data set on leukemia L 1210 (survival time), 182%. The “Variation by weight” value in the data set with leukemia P388 is recorded as -3.2 g; with leukemia L 1210, -0.5 g.
As for `[NH2][Pt]([NH2])([Cl])[Cl]` [Cis-Platine, reference compound], in the data set on melanoma B 16, the “Median day of survival” value is 36 days and 30.0 days and 38.75 days; the “Variation by weight” value is recorded as -0.6 g. For the same compound, the Number of survivors with melanoma B 16 (day D60) was 0/10. For the same compound, in the data set on melanoma B 16 (survival time), the T/C % was 131% and 126% and 141%.
`O=P1(N(CCCl)CCCl)NCCCO1` (centres unmarked) [Cyclopnospnamide, cyclophosphamide, reference compound]: in the data set with reticulosarcoma M5-M5076, the “Median day of survival” value was > 60 days and 57.0 days. Also, in the data set on reticulosarcoma M5-M5076 (day D75), the Number of survivors is 9/10 and 0/10. In the data set with reticulosarcoma M5-M5076 (survival time), the T/C % is > 239% and 219% and > 234%.
`CCN(CC)CCCNc1ncc(C)c2[nH]c3ccccc3c12` [Derivative 1]: in data set [1] (Mus musculus, L1210, 48 h), the IC50 is 0.2 µM.
`Cc1cnc(NCCNCCO)c2c1[nH]c1ccccc12` [Derivative 3]: the IC50 in data set [1] (Mus musculus, L1210, 48 h) was determined as 1.14 µM.
Consider `Cc1cnc(NCCCN(C)C)c2c1[nH]c1ccccc12` [Derivative No. 2, 1-(3-dimethylaminopropylamino)-4-methyl-5H-pyrido-[4,3-b]indole], for which the IC50 in data set [1] (Mus musculus, L1210, 48 h) was 0.16 µM.
Take `CCNCCCNc1ncc(C)c2[nH]c3ccc(OC)cc3c12` [Derivative No. 5, 1-(3-ethylaminopropylamino)-8-methoxy-4-methyl-5H-pyrido[4,3-b]indole]: the IC50 in data set [1] (Mus musculus, L1210, 48 h) was 1.2 µM.
Turning to `CCN(CC)CCCNc1ncc(C)c2c1c1cc(OC)ccc1n2C` [Derivative No. 6, 1-(3-diethylaminopropylamino)-4,5-dimethyl-8-methoxy-5H-pyrido[4,3-b]indole], the IC50 in data set [1] (Mus musculus, L1210, 48 h) was found to be 0.1 µM.
For the compound `CCN(CC)CCCNc1ncc(C)c2[nH]c3ccc(O)cc3c12` [Derivative No. 8, 1-(diethylaminopropylamino)-8-hydroxy-4-methyl-5H-pyrido[4,3-b]indole], in data set [1], the IC50 was 0.08 µM. Further, in the data set on leukemia P 388 (0.625 mg/kg IP), the “Median day of survival” value worked out at 15.1 days, the “Variation by weight” value was -0.5 g, the Number of survivors was 0/10 and the T/C % was 136%. Further, in the data set with leukemia P 388 (1.25 mg/kg IP), the “Median day of survival” value worked out at 15.7 days, the “Variation by weight (g)” value is recorded as “+0.6 g”, the Number of survivors is given as 0/10 and the T/C % is listed as 141%. In the data set on leukemia P 388 (2.5 mg/kg IP), the “Median day of survival” value stood at 16.1 days, the “Variation by weight” value is recorded as -1.2 g, the Number of survivors is recorded as 0/10 and the T/C % is on record as 147%. Further, in the data set with leukemia P 388 (5 mg/kg IP), the “Median day of survival” value was found to be 19.4 days, the “Variation by weight” value is on record as -0.8 g, the Number of survivors is 0/10 and the T/C % is 175%. Moreover, in the data set on leukemia P 388 (10 mg/kg IP), the “Median day of survival” value amounted to 12.0 days, the “Variation by weight” value is -1.1 g, the Number of survivors is listed as 0/10 and the T/C % is reported as 108%.
`CCN(CC)CCCNc1ncc(C)c2c1c1ccccc1n2C` [Derivative No. 16, 1-(3-diethylaminopropylamino)-4,5-dimethyl-5H-pyrido[4,3-b]indole dihydrochloride]: in data set [1] (Mus musculus, L1210, 48 h), the IC50 stood at 0.72 µM.
With `CCN(CC)CCNc1ncc(C)c2c1c1cc(OC)ccc1n2C` [Derivative No. 18, 1-(2-diethylaminoethylamino)-4,5-dimethyl-8-methoxy-5H-pyrido[4,3-b]indole dihydrochloride], the IC50 in data set [1] (Mus musculus, L1210, 48 h) is 1.2 µM.
For the compound `CCN(CC)CCCCNc1ncc(C)c2c1c1cc(OC)ccc1n2C` [Derivative No. 22, 1-(4-diethylaminobutylamino)-4,5-dimethyl-8-methoxy-5H-pyrido[4,3-b]indoledihydrochloride], in data set [1] (Mus musculus, L1210, 48 h), the IC50 was determined as 1.3 µM.
For `CCN(CC)CCCCNc1ncc(C)c2c1c1cc(O)ccc1n2C` [Derivative No. 23, 1-(4-diethylaminobutylamino)-4,5-dimethyl-8-hydroxy-5H-pyrido[4,3-b]indoledihydrochloride], in data set [1] (Mus musculus, L1210, 48 h), the IC50 came to 0.31 µM.

The values are drawn from patent US4835160A, “Derivatives of pyridoindole, having anti-tumor properties” (Sanofi, priority 1986, dated 1989).
